{"source": "patent US20240285755A1", "about": "“Adjuvants” (GlaxoSmithKline Biologicals SA, priority 2021, published 2024)", "test_system": "HSV-1 gE/gI", "experiment": "Total anti-HSV-1 gE/gI cross-reactive IgG antibodies by ELISA in serum of immunised mice", "type": "in vivo, CB6F1 mice", "details": "0.1 ug LNP/SAM i.m. days 0 & 28, adjuvanted with 2.22 ug of STING agonist at day+0, +1 or +3; 21PII (day 49); FIG. 3", "protocol": "Female CB6F1 inbred mice aged 6-8 weeks old were randomly assigned to study groups (n=8 gr1-10 (groups 1-10) and n=4/gr11 (group 11)) and kept under pathogen-free conditions. Mice ([…]) were intramuscularly (i.m.) immunized, in the gastrocnemius muscle, on days 0 and 28 with 0.1ug of LNP-formulated SAM (25 uL volume) comprising a heterodimer of the HSV-2 gE and gI proteins (LNP/SAM-gE_P317R/gI) and were injected, in the same muscle, with different doses of STING agonist (0.25, 0.74 or 2.22ug) either at the same time (day+0) or 1 or 3 days after each of the two SAM immunizations. […]\nQuantification of the total HSV-1 gE/gI-specific IgG antibodies was performed using indirect ELISA. […]\nThe plates were then washed four times with washing buffer and 2 times with deionised water and incubated for 15 min at RT (room temperature) with 100 uL/well of a solution of 75% single-component TMB peroxidase ELISA substrate diluted in sodium citrate 0.1M pH5.5 buffer. Enzymatic color development was stopped with 100 uL of […] sulfuric acid 1M (H2SO4) per well and the plates were read at an absorbance of 450/620 nm using an ELISA reader. Optical densities (OD) were captured and analysed. […] Antibody titer in the samples was calculated by interpolation of the standard curve. […]", "data": [{"smiles": "CCn1nc(C)cc1C(=O)/N=c1\\[nH]c2cc(C(N)=O)cc(OC)c2n1C/C=C/Cn1/c(=N/C(=O)c2cc(C)nn2CC)[nH]c2cc(C(N)=O)cc(OCCCOP(=O)(O)O)c21", "note": "[STING, 3-(((E)-6-carbamoyl-3-((E)-4-((E)-5-carbamoyl-2-((1-ethyl-3-methyl-1H-pyrazole-5-carbonyl)imino)-7-methoxy-2,3-dihydro-1H-benzo[d]imidazol-1-yl)but-2-en-1-yl)-2-((1-ethyl-3-methyl-1H-pyrazole-5-carbonyl)imino)-2,3-dihydro-1H-benzo[d]imidazol-4-yl)oxy)propyl]", "values": [{"measurement": "GM titers of anti-HSV-1 gE/gI cross reactive IgG antibody relative to unadjuvanted control", "value": "increased GM titers of anti-HSV-1 gE/gI cross reactive IgG antibody in all groups"}]}]}
